Earlier results as cited in paper PMC10787790, “Isatin-tethered halogen-containing acylhydrazone derivatives as monoamine oxidase inhibitor with neuroprotective effect” (Scientific Reports, 2024).

Tested on: MAO-B
Conditions: printed in Figure 2 (design strategy), no reference given; cited from earlier work

O=C1Nc2ccc(Cl)cc2/C1=N\NC(=O)c1ccc2c(c1)OCO2 [Compound 2A]
IC50: 89 nM
